In patent US10130637B2, “Inhibition of histone methyltransferase for cardiac reprogramming” (Duke University, priority 2012, dated 2018):
Structures can show the parent of a compound that is named as a salt.

Experiments:
[1] = system: Neonatal cardiac fibroblasts; test: cardiac marker gene expression by qPCR in neonatal cardiac fibroblasts treated with HMT inhibitors, no microRNA; format: cell-based, mouse; settings: 1 μM, after 3 days, absence of microRNA combination (FIG. 9A)
Method: Neonatal cardiac fibroblasts were treated with 1 μM of the H3K9me3 inhibitor BIX-01294 (BIX) or 1 μM of the H3K27me3/H4K20me3 inhibitor 3-Deazaneplanocin A hydrochloride (DZNep) from day 1 to day 3 in the absence (A) or presence of microRNA combination (MC) (B). Gene expression of cardiac markers was assessed by qPCR. Data are shown as Avg+Sdv. *P<0.05.
Inhibition of histone methyltransferase activity by small molecule compounds was investigated. Neonatal cardiac fibroblasts were treated with 1 μM of the H3K9 methylation inhibitor BIX-01294 or 1 μM of the H3K27/H4K20 methylation inhibitor 3-Deazaneplanocin A hydrochloride (DZNep). After 3 days, RNA was harvested using standard protocols known in the art, and cardiac gene expression was assessed by qPCR. The cardiac genes tested were Tbx5, Mef2C, Gata4, and Nkx2.5. […] Alternatively, inhibition of H3K9 causes upregulation of other cardiac markers, such asTbx5, and therefore inhibition of H3K9 methylation also promotes the expression of at least one cardiac marker.

G9a-like protein = molecular target: T1, G9a-like protein (Homo sapiens, UniProt Q9H9B1); settings: reported activity; cited from earlier work
T1 sequence (Q9H9B1 1-1298): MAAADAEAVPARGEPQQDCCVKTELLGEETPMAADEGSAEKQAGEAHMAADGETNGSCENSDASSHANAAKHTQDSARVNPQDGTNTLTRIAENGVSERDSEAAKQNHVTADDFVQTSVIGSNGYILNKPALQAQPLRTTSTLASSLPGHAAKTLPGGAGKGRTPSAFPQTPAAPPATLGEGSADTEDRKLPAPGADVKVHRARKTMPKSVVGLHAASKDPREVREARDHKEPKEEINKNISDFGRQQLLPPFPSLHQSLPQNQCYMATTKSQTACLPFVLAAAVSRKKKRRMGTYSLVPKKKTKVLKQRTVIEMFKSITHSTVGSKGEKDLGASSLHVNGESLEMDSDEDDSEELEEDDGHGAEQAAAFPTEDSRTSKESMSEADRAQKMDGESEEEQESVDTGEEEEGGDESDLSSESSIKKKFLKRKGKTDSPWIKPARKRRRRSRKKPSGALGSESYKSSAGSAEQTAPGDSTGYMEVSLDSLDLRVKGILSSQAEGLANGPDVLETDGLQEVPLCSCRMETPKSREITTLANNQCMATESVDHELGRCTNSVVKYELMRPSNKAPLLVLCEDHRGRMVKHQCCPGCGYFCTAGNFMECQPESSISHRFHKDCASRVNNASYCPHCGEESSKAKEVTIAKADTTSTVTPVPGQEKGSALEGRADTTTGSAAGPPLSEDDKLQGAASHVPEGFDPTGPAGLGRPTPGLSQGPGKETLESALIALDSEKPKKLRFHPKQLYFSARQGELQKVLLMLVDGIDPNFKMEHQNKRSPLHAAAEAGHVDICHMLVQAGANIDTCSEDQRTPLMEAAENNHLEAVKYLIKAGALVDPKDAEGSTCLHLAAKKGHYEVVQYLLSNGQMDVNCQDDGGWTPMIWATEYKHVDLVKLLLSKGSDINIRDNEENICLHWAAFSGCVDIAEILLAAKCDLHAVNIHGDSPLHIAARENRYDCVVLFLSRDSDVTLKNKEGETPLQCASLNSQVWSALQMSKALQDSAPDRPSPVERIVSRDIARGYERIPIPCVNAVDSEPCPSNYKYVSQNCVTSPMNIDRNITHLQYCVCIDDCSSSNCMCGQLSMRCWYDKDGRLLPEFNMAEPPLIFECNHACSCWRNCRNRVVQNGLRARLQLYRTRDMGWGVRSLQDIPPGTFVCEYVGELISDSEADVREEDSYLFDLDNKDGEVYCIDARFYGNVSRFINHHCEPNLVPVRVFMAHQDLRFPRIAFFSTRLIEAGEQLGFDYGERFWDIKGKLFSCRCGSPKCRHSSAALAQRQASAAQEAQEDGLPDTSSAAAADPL

[2] = system: lysine 9 of histone H3 (H3K9); settings: has been shown; cited from earlier work
[3] = molecular target: T2, G9a histone lysine methyltransferase (Homo sapiens, UniProt Q96KQ7); settings: reported activity; cited from earlier work
T2 sequence (Q96KQ7 1-1210): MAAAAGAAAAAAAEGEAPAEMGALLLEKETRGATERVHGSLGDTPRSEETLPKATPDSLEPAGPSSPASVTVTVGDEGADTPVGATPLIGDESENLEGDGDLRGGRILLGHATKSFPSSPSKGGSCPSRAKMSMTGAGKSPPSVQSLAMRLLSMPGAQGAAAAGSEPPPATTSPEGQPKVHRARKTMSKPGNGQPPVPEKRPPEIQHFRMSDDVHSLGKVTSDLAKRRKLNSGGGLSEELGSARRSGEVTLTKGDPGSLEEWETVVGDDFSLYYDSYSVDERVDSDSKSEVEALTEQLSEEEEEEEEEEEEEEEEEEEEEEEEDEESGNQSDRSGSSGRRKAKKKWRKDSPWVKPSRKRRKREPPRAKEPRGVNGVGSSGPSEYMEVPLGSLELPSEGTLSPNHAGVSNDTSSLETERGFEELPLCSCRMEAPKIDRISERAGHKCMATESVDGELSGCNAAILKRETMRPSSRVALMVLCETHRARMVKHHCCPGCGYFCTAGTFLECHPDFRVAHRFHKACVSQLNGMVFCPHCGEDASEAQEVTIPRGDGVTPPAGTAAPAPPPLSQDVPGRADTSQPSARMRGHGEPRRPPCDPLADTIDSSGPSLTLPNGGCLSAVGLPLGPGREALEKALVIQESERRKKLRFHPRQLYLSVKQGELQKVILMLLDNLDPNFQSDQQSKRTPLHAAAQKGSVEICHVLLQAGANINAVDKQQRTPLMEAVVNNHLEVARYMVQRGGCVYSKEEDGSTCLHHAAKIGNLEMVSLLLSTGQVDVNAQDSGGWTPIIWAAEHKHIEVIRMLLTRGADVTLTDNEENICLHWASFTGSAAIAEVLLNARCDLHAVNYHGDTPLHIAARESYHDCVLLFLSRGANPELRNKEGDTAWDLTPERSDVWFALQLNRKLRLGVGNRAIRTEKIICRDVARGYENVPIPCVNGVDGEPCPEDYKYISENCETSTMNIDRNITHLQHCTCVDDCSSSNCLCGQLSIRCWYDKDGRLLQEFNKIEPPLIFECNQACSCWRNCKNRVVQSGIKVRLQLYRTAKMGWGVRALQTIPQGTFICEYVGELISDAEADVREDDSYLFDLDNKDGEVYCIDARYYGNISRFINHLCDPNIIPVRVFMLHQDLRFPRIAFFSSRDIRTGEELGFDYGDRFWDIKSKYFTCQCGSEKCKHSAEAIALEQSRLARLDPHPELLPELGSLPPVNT

[4] = system: Human fibroblasts (BJ cells); test: cardiac marker gene expression by qPCR in miRNA-transfected human fibroblasts with JAK inhibitor; format: cell-based; settings: 1 μM, compared to cells transfected with the miRNAs alone
Method: Gene expression was determined by qPCR. (A) Isl-1 gene expression. (B) […] gene expression. (C) Tbx5 gene expression. (D) Mef2c gene expression. (E) Gata-4 gene expression.
RNA was harvested and prepared according to standard protocols for qPCR gene expression analysis. The expression of cardiac marker genes, such as Isl1, Mesp1, Tbx5, Mef2c, Gata4, and Hand2 was assessed.

| SMILES | Mef2C cardiac marker gene expression [1] | Nkx2.5 cardiac marker gene expression [1] | Tbx5 cardiac marker gene expression [1] | activity on G9a-like protein (G9a-like protein) | methylation at lysine 9 of histone H3 (H3K9) [2] | activity on G9a histone lysine methyltransferase [3] | expression of cardiac markers (Isl1, Mesp1, Tbx5, Mef2c, Gata4, Hand2) [4] |
| --- | --- | --- | --- | --- | --- | --- | --- |
| COc1cc2nc(N3CCCN(C)CC3)nc(NC3CCN(Cc4ccccc4)CC3)c2cc1OC [BIX-01294, 2-(Hexahydro-4-methyl-1H-1,4-diazepin-1-yl)-6,7-dimethoxy-N-[1-(phenylmethyl)-4-piperidinyl]-4-quinazolinamine trihydrochloride] | significant downregulation | significant downregulation | upregulation | inhibition | inhibit | inhibition | – |
| CC(C)(C)c1nc2c3ccc(F)cc3c3c(=O)[nH]ccc3c2[nH]1 [JAK inhibitor I, 2-(1,1-Dimethylethyl)-9-fluoro-3,6-dihydro-7H-benz[h]-imidaz[4,5-f]isoquinolin-7-one] | – | – | – | – | – | – | increases |
